Experimental data reported in PMC10067855, “Sialidases and fucosidases of Akkermansia muciniphila are crucial for growth on mucin and nutrient sharing with mucus-associated gut bacteria” (Nature Communications, 2023).

Assays:
[1] = molecular target: T1, AmGH29A (Akkermansia muciniphila, UniProt B2UL68); assay: inhibition of pNPFuc hydrolysis, A405; type: biochemical
T1 construct: gene Amuc_0010; mature peptide lacking the signal peptide
T1 sequence (B2UL68 20-538): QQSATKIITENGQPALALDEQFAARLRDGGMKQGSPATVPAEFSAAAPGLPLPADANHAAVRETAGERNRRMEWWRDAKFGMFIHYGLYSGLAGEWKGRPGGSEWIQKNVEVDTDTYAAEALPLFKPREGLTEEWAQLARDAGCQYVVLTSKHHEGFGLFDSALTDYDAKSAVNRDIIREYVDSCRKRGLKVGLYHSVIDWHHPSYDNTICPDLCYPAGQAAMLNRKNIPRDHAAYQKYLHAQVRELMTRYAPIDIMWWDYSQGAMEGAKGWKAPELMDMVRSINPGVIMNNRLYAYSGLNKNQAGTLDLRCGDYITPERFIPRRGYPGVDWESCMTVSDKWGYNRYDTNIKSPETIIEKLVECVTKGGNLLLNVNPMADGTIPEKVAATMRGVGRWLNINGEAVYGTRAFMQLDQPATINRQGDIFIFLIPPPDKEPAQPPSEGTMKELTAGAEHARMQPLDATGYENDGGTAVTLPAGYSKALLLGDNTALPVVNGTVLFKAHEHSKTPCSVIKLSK

[2] = molecular target: T2, AmGH29D (Akkermansia muciniphila, UniProt B2UQE4); assay: inhibition of pNPFuc hydrolysis, A405; type: biochemical
T2 construct: gene Amuc_0846; mature peptide lacking the signal peptide
T2 sequence (B2UQE4 25-704): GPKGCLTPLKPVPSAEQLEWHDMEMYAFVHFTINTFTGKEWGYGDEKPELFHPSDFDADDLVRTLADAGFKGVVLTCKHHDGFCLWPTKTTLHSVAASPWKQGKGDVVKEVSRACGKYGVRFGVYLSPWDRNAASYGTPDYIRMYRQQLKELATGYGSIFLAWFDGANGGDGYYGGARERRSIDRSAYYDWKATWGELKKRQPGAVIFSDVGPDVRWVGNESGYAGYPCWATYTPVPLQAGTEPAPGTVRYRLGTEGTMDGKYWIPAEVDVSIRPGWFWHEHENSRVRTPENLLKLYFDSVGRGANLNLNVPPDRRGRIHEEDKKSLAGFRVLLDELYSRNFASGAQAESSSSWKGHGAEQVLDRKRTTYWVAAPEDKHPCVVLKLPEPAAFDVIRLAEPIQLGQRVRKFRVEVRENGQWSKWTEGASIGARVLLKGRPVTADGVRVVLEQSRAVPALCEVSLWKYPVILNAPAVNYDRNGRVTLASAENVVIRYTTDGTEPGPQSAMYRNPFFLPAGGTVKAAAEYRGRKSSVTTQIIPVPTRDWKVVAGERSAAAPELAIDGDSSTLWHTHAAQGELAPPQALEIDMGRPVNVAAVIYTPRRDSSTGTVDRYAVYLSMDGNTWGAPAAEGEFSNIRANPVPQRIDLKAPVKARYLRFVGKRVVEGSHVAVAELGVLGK

## C[C@@H]1NC[C@@H](O)[C@H](O)[C@@H]1O [DFJ, 1-Deoxyfuconojirimycin]
[1]
  IC50: < 54 µM
[2]
  IC50: < 54 µM
